Measurements from PubChem BioAssay AID1963446 (Molecular Pharmacology Branch, DTP, NCI, 2024).
pIC50: −log10 of the molar value. Several values for one entry are separate records, joined by “and”; a condition that tells them apart may be missing. Equal entries are not always repeated.

System: 993429-296-R-J1-PDC complex spheroid growth, percent test/control
Experiment: Anticancer human tumor 993429-296-R-J1-PDC patient-derived uterine sarcoma cell line growth inhibition [Asc]
Details: for viability, T/C: stronger effect = lower value
Experimental: Multicellular complex tumor spheroid response to apoptosis pathway targeting inhibitors Alrizomadlin, Pelcitoclax, and Dasminapant in combination with a variety of drugs and investigational agents in selected tumor cell lines
The MDM2 inhibitor alrizomadlin, the Bcl-2/Bcl-xL inhibitor pelcitoclax, and the IAPs inhibitor dasminapant were evaluated both individually and in combination with standard of care and investigational anticancer small molecules within a complex spheroid model of solid tumors. . Complex spheroids include a stromal component modeled by human endothelial cells (HUVEC) and fibroblasts modeled by human mesenchymal stem cells (MSCs). The concentration ranges selected for each drug and investigational agent were based upon clinically achievable concentrations if the clinical Cmax of the agent was known.
Compounds. The drugs and investigational agents: alrizomadlin (APG-115; NSC831270), pelcitoclax (APG-1252; NSC835773), dasminapant (APG-1387;NSC834197), TAK-243 (NSC785004), copanlisib (NSC809693), olaparib (NSC753686), talazoparib (NSC767125), cobimetinib (NSC 768068), eltanexor (KPT-8602, NSC 794443), abemaciclib (NSC 768073), sotorasib (NSC818433), adagrasib (NSC 831453), MRTX-1133 (NSC 836407), Iadademestat (ORY1001, NSC 806812), and RMC-4630 (NSC839698), were obtained from the NCI Developmental Therapeutics Program Chemical Repository. The FDA-approved anticancer drug set is available from the Developmental Therapeutics Program at https://dtp.cancer.gov/organization/dscb/obtaining/available plates.htm. […] The stock solutions were prepared in dimethyl sulfoxide (DMSO, Sigma-Aldrich, St. Louis, MO, cat. D2650) at 800-fold the tested concentration and stored at -70 degrees C prior to their use. All drugs and investigational agents were tested over a range starting from a high concentration at or near the clinical Cmax and decreasing in half-log increments. If the clinical Cmax for an agent had not been determined, the highest concentration tested was 10 microM.
The patient-derived cancer (PDC) cell lines include five colon adenocarcinomas: 186277-243-T-J2-PDC, 616215-338-R-J1-PDC, 439559-082-T-J2-PDC, 463943-066-T-J2-PDC, and 519858-162-T-J1-PDC; three pancreatic carcinomas: 323965-272-R-J2-PDC, 521955-158-R6-J3-PDC, and 521955-158-R2-J5-PDC; two uterine sarcomas: 327498-152-R-J2-PDC and 993429-296-R-J1-PDC; two rhabdomyosarcomas: 755483-174-R-J1-PDC and 772245-204-R-J1-PDC; two soft tissue sarcomas: 126254-015-R-J1-PDC and 494315-158-R-J1-PDC; two malignant fibrous histiocytomas: 317291-083-R-J1-PDC and 596521-263-R-J1-PDC; two breast carcinomas: 171881-019-R-J1-PDC and 885512-296-R-J2-PDC; and one ovarian carcinoma: 6556581-035-R-J-PDC were obtained from the NCI PDMR, (https://pdmr.cancer.gov). The established cell lines HSSY-2 synovial sarcoma (RRID:CVCL 8719), SYO-1 synovial sarcoma (RRID:CVCL_7146), MPNST malignant peripheral neural sheath tumor were obtained from the Sloan Kettering Institute. The following established cell lines were purchased from the American Type Culture Collection (ATCC, Manassas, VA), Sor the received from the NCI repository:, PANC-1 pancreatic carcinoma (CRL-1469, RRID:CVCL_0480), OVCAR-5 ovarian carcinoma (RRID:CVCL_1628), OVCAR-8 ovarian carcinoma (RRID:CVCL_1629), , MCF-7 breast carcinoma (CRL-12584, RRID:CVCL_0031), MDA-MB-231 breast carcinoma (CRL-12532, RRID:CVCL_0062), NCI-H1876 small cell lung carcinoma (CRL-5902, RRID:CVCL_1503), NCI-H510A small cell lung carcinoma (HTB-184, RRID:CVCL_1565), NCI-H1417 (CRL-5869, RRID:CVCL_1469), and NCI-H196 small cell lung carcinoma (CRL-5823, RRID:CVCL_1509). Dr. Peter Houghton (Greehey Children's Cancer Research Institute, University of Texas Health Science Center, San Antonio, TX) provided Rh-18 rhabdomyosarcoma (RRID:CVCL_1659). Pooled donor human umbilical vein endothelial cells (HUVEC, Lonza, cat. CC-2519) and human mesenchymal stem cells (hMSC, Lonza, cat. PT-2501) were purchased from Lonza (Walkersville, MD).
Cell Culture. […]

[1] = curve of first compound, second compound 0.01 µM
[2] = curve of first compound, second compound 0.0316 µM
[3] = curve of first compound, second compound 0.1 µM
[4] = curve of first compound, second compound 0.316 µM
[5] = curve of first compound, second compound 1 µM
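Further: spheroids exposed to compounds for seven days.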

Cc1nc(N2CCC3(CC2)COC(C)C3N)c(CO)nc1Sc1ccnc(N)c1Cl (configuration not stated)
viability, T/C (compound 0.00949 µM): 94.6% and 84.2% and 83.6%
viability, T/C (compound 0.03 µM): 93.1% and 77% and 87.6%
viability, T/C (compound 0.0949 µM): 75.2% and 65.9% and 54.9%
viability, T/C (compound 0.3 µM): 58.9% and 43% and 42.1%
viability, T/C (compound 0.949 µM): 49% and 32.2% and 34.5%
viability, T/C (compound 3 µM): 40.3% and 25.8% and 27.8%
pIC50 (curve of compound): 6.15 and 6.67 and 6.84

NC1CCC(NC2CC2c2ccccc2)CC1 (configuration not stated) + CNC(C)C(=O)NC1CN(S(=O)(=O)c2cccc(S(=O)(=O)N3CCC4CCC(C(=O)NC(c5ccccc5)c5ccccc5)N4C(=O)C(NC(=O)C(C)NC)C3)c2)CCC2CCC(C(=O)NC(c3ccccc3)c3ccccc3)N2C1=O
pIC50 [1]: < 7.00
pIC50 [2]: < 7.00
pIC50 [3]: < 7.00
pIC50 [4]: < 7.00
pIC50 [5]: > 9.50
viability, T/C (second compound 0.01 µM, first compound 0.000316 µM): 63.9%
viability, T/C (second compound 0.01 µM, first compound 0.001 µM): 62.7%
viability, T/C (second compound 0.01 µM, first compound 0.00316 µM): 57.3%
viability, T/C (second compound 0.01 µM, first compound 0.01 µM): 63.6%
viability, T/C (second compound 0.01 µM, first compound 0.0316 µM): 57.8%
viability, T/C (second compound 0.01 µM, first compound 0.1 µM): 63.4%
viability, T/C (second compound 0.0316 µM, first compound 0.000316 µM): 53.3%
viability, T/C (second compound 0.0316 µM, first compound 0.001 µM): 56.3%
viability, T/C (second compound 0.0316 µM, first compound 0.00316 µM): 48.5%
viability, T/C (second compound 0.0316 µM, first compound 0.01 µM): 46.5%
viability, T/C (second compound 0.0316 µM, first compound 0.0316 µM): 57.7%
viability, T/C (second compound 0.0316 µM, first compound 0.1 µM): 57.9%
viability, T/C (second compound 0.1 µM, first compound 0.000316 µM): 53.1%
viability, T/C (second compound 0.1 µM, first compound 0.001 µM): 53.5%
viability, T/C (second compound 0.1 µM, first compound 0.00316 µM): 58.6%
viability, T/C (second compound 0.1 µM, first compound 0.01 µM): 54.9%
viability, T/C (second compound 0.1 µM, first compound 0.0316 µM): 58.3%
viability, T/C (second compound 0.1 µM, first compound 0.1 µM): 56%
viability, T/C (second compound 0.316 µM, first compound 0.000316 µM): 59.7%
viability, T/C (second compound 0.316 µM, first compound 0.001 µM): 51.5%
viability, T/C (second compound 0.316 µM, first compound 0.00316 µM): 48.1%
viability, T/C (second compound 0.316 µM, first compound 0.01 µM): 50.2%
viability, T/C (second compound 0.316 µM, first compound 0.0316 µM): 53.2%
viability, T/C (second compound 0.316 µM, first compound 0.1 µM): 49.8%
viability, T/C (second compound 1 µM, first compound 0.000316 µM): 45.9%
viability, T/C (second compound 1 µM, first compound 0.001 µM): 41.7%
viability, T/C (second compound 1 µM, first compound 0.00316 µM): 39.7%
viability, T/C (second compound 1 µM, first compound 0.01 µM): 41.1%
viability, T/C (second compound 1 µM, first compound 0.0316 µM): 47.9%
viability, T/C (second compound 1 µM, first compound 0.1 µM): 28.1%

NC(=O)C(=Cn1cnc(-c2cc(C(F)(F)F)cc(C(F)(F)F)c2)n1)c1cncnc1 + CNC(C)C(=O)NC1CN(S(=O)(=O)c2cccc(S(=O)(=O)N3CCC4CCC(C(=O)NC(c5ccccc5)c5ccccc5)N4C(=O)C(NC(=O)C(C)NC)C3)c2)CCC2CCC(C(=O)NC(c3ccccc3)c3ccccc3)N2C1=O
pIC50 [1]: 7.89
pIC50 [2]: 7.95
pIC50 [3]: 8.05
pIC50 [4]: 8.22
pIC50 [5]: 8.09
viability, T/C (second compound 0.01 µM, first compound 0.000949 µM): 62.7%
viability, T/C (second compound 0.01 µM, first compound 0.003 µM): 65.6%
viability, T/C (second compound 0.01 µM, first compound 0.00949 µM): 55.4%
viability, T/C (second compound 0.01 µM, first compound 0.03 µM): 33.1%
viability, T/C (second compound 0.01 µM, first compound 0.0949 µM): 14.9%
viability, T/C (second compound 0.01 µM, first compound 0.3 µM): 8.47%
viability, T/C (second compound 0.0316 µM, first compound 0.000949 µM): 63.6%
viability, T/C (second compound 0.0316 µM, first compound 0.003 µM): 63.1%
viability, T/C (second compound 0.0316 µM, first compound 0.00949 µM): 52.1%
viability, T/C (second compound 0.0316 µM, first compound 0.03 µM): 33%
viability, T/C (second compound 0.0316 µM, first compound 0.0949 µM): 14.9%
viability, T/C (second compound 0.0316 µM, first compound 0.3 µM): 8%
viability, T/C (second compound 0.1 µM, first compound 0.000949 µM): 58.3%
viability, T/C (second compound 0.1 µM, first compound 0.003 µM): 61.1%
viability, T/C (second compound 0.1 µM, first compound 0.00949 µM): 48.1%
viability, T/C (second compound 0.1 µM, first compound 0.03 µM): 33.3%
viability, T/C (second compound 0.1 µM, first compound 0.0949 µM): 16%
viability, T/C (second compound 0.1 µM, first compound 0.3 µM): 4.45%
viability, T/C (second compound 0.316 µM, first compound 0.000949 µM): 57.6%
viability, T/C (second compound 0.316 µM, first compound 0.003 µM): 60%
viability, T/C (second compound 0.316 µM, first compound 0.00949 µM): 43.7%
viability, T/C (second compound 0.316 µM, first compound 0.03 µM): 29%
viability, T/C (second compound 0.316 µM, first compound 0.0949 µM): 15.8%
viability, T/C (second compound 0.316 µM, first compound 0.3 µM): 8.88%
viability, T/C (second compound 1 µM, first compound 0.000949 µM): 52%
viability, T/C (second compound 1 µM, first compound 0.003 µM): 62.6%
viability, T/C (second compound 1 µM, first compound 0.00949 µM): 47.8%
viability, T/C (second compound 1 µM, first compound 0.03 µM): 28.5%
viability, T/C (second compound 1 µM, first compound 0.0949 µM): 14.1%
viability, T/C (second compound 1 µM, first compound 0.3 µM): 5.77%
